The text below walks through data of patent US20030228343A1, “Method for controlling a population of social insects using 1-arylpyrazoles or 1-heteroarylpyrazoles” (priority 1995, published 2003).

In one test the test system is Lasius niger. Nature of the test: Honey bait placed near an active anthill, population destruction. The note with it: 10 g of a 0.05% dispersion in honey. The class given is in vivo. The text has this:
A watch glass containing 10 g of a 0.05% dispersion of compound A in honey is placed 20 cm from the entrance to an active anthill. The ants are of the species Lasius niger, for which the fraction of workers whose function is to collect food is in the region of 10% of the total population. The total population is estimated by a count carried out on an untreated anthill, referred to as the control, containing 10,000 individuals.
During the first 2 days, it is observed that the ants head in a column from the anthill to the watch glass, stop to take up the dispersion and then return to the anthill.
An update on the latter is then obtained by excavation.

The subject of test [1] is Blatella Germanica cockroaches. The test is described as follows: Bait pellet test on cockroaches in boxes, with later introduction of healthy cockroaches. The note with it: 2.7 g bait pellet with 1.35 mg active, bait removed after 8 hours and 15 new healthy cockroaches added. The class given is in vivo. The protocol: Tests are carried out on Blatella Germanica cockroaches in boxes 36×24×14 cm in size. These boxes comprise a source of water, a shelter consisting of piled pieces of cardboard, and additional food consisting of biscuit pieces.
15 cockroaches are introduced into the box without bait.
After 24 hours, a 2.7 g pellet of bait with 1.35 mg of product of formula (I) is introduced into the box.
After a further 8 hours, the bait and the additional food are removed and 15 new healthy cockroaches are introduced.

`N#Cc1nn(-c2c(Cl)cc(C(F)(F)F)cc2Cl)c(N)c1[S+]([O-])C(F)(F)F` (centres unmarked) [compound A, 5-amino-3-cyano-I-[2,6-dichloro4-(trifluoromethyl)phenyl]-4[(trifluoromethyl)sulfinyl]-IH-pyrazole]: in the test with Lasius niger (20 cm from anthill entrance, excavation after 15 days, total population about 10,000 individuals), the destruction rate result is “greater than 99%”. Besides, the “surface activity around the anthill” value in the test with Lasius niger (after 15 days) is recorded as “no further surface activity”. The “destruction of larvae in the anthill” value in the test on Lasius niger (excavation after 15 days) is “all the larvae have been destroyed”. For the same compound, the cockroaches dead in test [1] (64 hours after introduction of the bait) came to 98.6%; in test [1] (after 88 hours), 100%.
